In patent publication US20130032547A1, “STABILIZATION AND DISINFECTION OF WASTES USING HIGH ENERGY E-BEAM AND CHEMICAL OXIDANTS” (priority 2011, published 2013):
Entries after “also recorded” stand apart in the source; their conditions may differ.

Columns and labels:
Salmonella Typhimurium [1] = test: Re-growth of spiked Salmonella in treated biosolids (U.S. EPA method 1682, MPN); type: cell-based; settings: for Salmonella, Plate count: Sep. 11, 2009
[2] = system: fecal coliforms (E. coli); test: Re-growth of fecal coliforms (spiked E. coli) in treated biosolids (U.S. EPA method 1680, MPN); type: cell-based; settings: for fecal coliforms, Plate count: Sep. 11, 2009
[3] = system: estrogenic activity of 17-β-estradiol (E2); human estrogen receptor; test: Estrogenic activity, YES assay (recombinant yeast); type: cell-based, Saccharomyces cereviciae; for estrogenic activity, E2 spiked (untreated) vs treated samples (in words): test concentration or dose not given here; for reduction of estrogenic activity (in words): test concentration or dose not given here
[4] = system: somatic coliphages (phi X 174); type: cell-based, coliphage phi X 174; note: test concentration or dose not given here
Poliovirus Type 1 = settings: cited from earlier work
[5] = system: Escherichia coli (ATCC #25922); type: cell-based; for reduction (in words): test concentration or dose not given here
Salmonella Typhimurium [6] = type: cell-based
[7] = Table 23, ClO2 + Irradiated, Oct. 5, 2009
[8] = Table 23, ClO2 + Irradiated, Sep. 18, 2009
[9] = Table 23, ClO2 + Irradiated, Sep. 25, 2009
[10] = Table 24, ClO2 + Irradiated, Oct. 5, 2009
[11] = Table 24, ClO2 + Irradiated, Sep. 18, 2009
[12] = Table 24, ClO2 + Irradiated, Sep. 25, 2009
[13] = Table 25, ClO2 + Irradiated, Oct. 5, 2009
[14] = Table 25, ClO2 + Irradiated, Sep. 18, 2009
[15] = Table 25, ClO2 + Irradiated, Sep. 25, 2009
[16] = Table 26, ClO2 + Irradiated, Oct. 5, 2009
[17] = Table 26, ClO2 + Irradiated, Sep. 18, 2009
[18] = Table 26, ClO2 + Irradiated, Sep. 25, 2009
Throughout, for reduction (in words): test concentration or dose not given here.

Compound: [O][Cl+][O-] [Chlorine Dioxide, chlorine dioxide]
- re-growth of Salmonella spp. (in words) (Salmonella Typhimurium [1]): no re-growth
- Salmonella, Plate count (Salmonella Typhimurium [1]; Table 23 (% total solid 0.0131, aerobic inferred), ClO2): 2.98E+08
- Salmonella MPN/4 g (dry weight) (Salmonella Typhimurium [1]; [7]): 2.20E+01 MPN/4 g (dry weight)
- Salmonella MPN/4 g (dry weight) based on 2 ml, 1 ml, 0.1 ml (Salmonella Typhimurium [1]; [7]): 2.2E+00 MPN/4 g (dry weight)
- Salmonella MPN/ml (wet weight) (Salmonella Typhimurium [1]; [7]): 0.0072 MPN/ml (wet weight)
- Salmonella, Plate count (Salmonella Typhimurium [1]; Table 23, ClO2 + Irradiated): 4.43E+05
- Salmonella MPN/4 g (dry weight) (Salmonella Typhimurium [1]; [8]): 1.91E+02 MPN/4 g (dry weight)
- Salmonella MPN/4 g (dry weight) based on 2 ml, 1 ml, 0.1 ml (Salmonella Typhimurium [1]; [8]): 1.9E+01 MPN/4 g (dry weight)
- Salmonella MPN/ml (wet weight) (Salmonella Typhimurium [1]; [8]): 0.0626 MPN/ml (wet weight)
- Salmonella MPN/4 g (dry weight) (Salmonella Typhimurium [1]; [9]): 7.15E+01 MPN/4 g (dry weight)
- Salmonella MPN/4 g (dry weight) based on 2 ml, 1 ml, 0.1 ml (Salmonella Typhimurium [1]; [9]): 7.1E+00 MPN/4 g (dry weight)
- Salmonella MPN/ml (wet weight) (Salmonella Typhimurium [1]; [9]): 0.0234 MPN/ml (wet weight)
- Salmonella MPN/4 g (dry weight) (Salmonella Typhimurium [1]; Table 23, ClO2, Oct. 5, 2009): 7.79E+01 MPN/4 g (dry weight)
- Salmonella MPN/4 g (dry weight) based on 2 ml, 1 ml, 0.1 ml (Salmonella Typhimurium [1]; Table 23, ClO2, Oct. 5, 2009): 7.8E+00 MPN/4 g (dry weight)
- Salmonella MPN/ml (wet weight) (Salmonella Typhimurium [1]; Table 23, ClO2, Oct. 5, 2009): 0.0255 MPN/ml (wet weight)
- Salmonella MPN/4 g (dry weight) (Salmonella Typhimurium [1]; Table 23, ClO2, Sep. 18, 2009): 4.91E+03 MPN/4 g (dry weight)
- Salmonella MPN/4 g (dry weight) based on 2 ml, 1 ml, 0.1 ml (Salmonella Typhimurium [1]; Table 23, ClO2, Sep. 18, 2009): 4.9E+02 MPN/4 g (dry weight)
- Salmonella MPN/ml (wet weight) (Salmonella Typhimurium [1]; Table 23, ClO2, Sep. 18, 2009): 1.6090 MPN/ml (wet weight)
- Salmonella MPN/4 g (dry weight) (Salmonella Typhimurium [1]; Table 23, ClO2, Sep. 25, 2009): 3.51E+02 MPN/4 g (dry weight)
- Salmonella MPN/4 g (dry weight) based on 2 ml, 1 ml, 0.1 ml (Salmonella Typhimurium [1]; Table 23, ClO2, Sep. 25, 2009): 3.5E+01 MPN/4 g (dry weight)
- Salmonella MPN/ml (wet weight) (Salmonella Typhimurium [1]; Table 23, ClO2, Sep. 25, 2009): 0.1151 MPN/ml (wet weight)
- Salmonella, Plate count (Salmonella Typhimurium [1]; Table 24 (% total solid 0.0312, anaerobic inferred), ClO2): 3.03E+06
- Salmonella MPN/4 g (dry weight) (Salmonella Typhimurium [1]; [10]): 4.41E+01 MPN/4 g (dry weight)
- Salmonella MPN/4 g (dry weight) based on 2 ml, 1 ml, 0.1 ml (Salmonella Typhimurium [1]; [10]): 4.4E+00 MPN/4 g (dry weight)
- Salmonella MPN/ml (wet weight) (Salmonella Typhimurium [1]; [10]): 0.0344 MPN/ml (wet weight)
- Salmonella, Plate count (Salmonella Typhimurium [1]; Table 24, ClO2 + Irradiated): 3.85E+03
- Salmonella MPN/4 g (dry weight) (Salmonella Typhimurium [1]; [11]): 6.95E+02 MPN/4 g (dry weight)
- Salmonella MPN/4 g (dry weight) based on 2 ml, 1 ml, 0.1 ml (Salmonella Typhimurium [1]; [11]): 7.0E+01 MPN/4 g (dry weight)
- Salmonella MPN/ml (wet weight) (Salmonella Typhimurium [1]; [11]): 0.5422 MPN/ml (wet weight)
- Salmonella MPN/4 g (dry weight) (Salmonella Typhimurium [1]; [12]): 8.03E+01 MPN/4 g (dry weight)
- Salmonella MPN/4 g (dry weight) based on 2 ml, 1 ml, 0.1 ml (Salmonella Typhimurium [1]; [12]): 8.0E+00 MPN/4 g (dry weight)
- Salmonella MPN/ml (wet weight) (Salmonella Typhimurium [1]; [12]): 0.0626 MPN/ml (wet weight)
- Salmonella MPN/4 g (dry weight) (Salmonella Typhimurium [1]; Table 24, ClO2, Oct. 5, 2009): 8.03E+01 MPN/4 g (dry weight)
- Salmonella MPN/4 g (dry weight) based on 2 ml, 1 ml, 0.1 ml (Salmonella Typhimurium [1]; Table 24, ClO2, Oct. 5, 2009): 8.0E+00 MPN/4 g (dry weight)
- Salmonella MPN/ml (wet weight) (Salmonella Typhimurium [1]; Table 24, ClO2, Oct. 5, 2009): 0.0626 MPN/ml (wet weight)
- Salmonella MPN/4 g (dry weight) (Salmonella Typhimurium [1]; Table 24, ClO2, Sep. 18, 2009): 2.06E+03 MPN/4 g (dry weight)
- Salmonella MPN/4 g (dry weight) based on 2 ml, 1 ml, 0.1 ml (Salmonella Typhimurium [1]; Table 24, ClO2, Sep. 18, 2009): 2.1E+02 MPN/4 g (dry weight)
- Salmonella MPN/ml (wet weight) (Salmonella Typhimurium [1]; Table 24, ClO2, Sep. 18, 2009): 1.6090 MPN/ml (wet weight)
- Salmonella MPN/4 g (dry weight) (Salmonella Typhimurium [1]; Table 24, ClO2, Sep. 25, 2009): 4.46E+02 MPN/4 g (dry weight)
- Salmonella MPN/4 g (dry weight) based on 2 ml, 1 ml, 0.1 ml (Salmonella Typhimurium [1]; Table 24, ClO2, Sep. 25, 2009): 4.5E+01 MPN/4 g (dry weight)
- Salmonella MPN/ml (wet weight) (Salmonella Typhimurium [1]; Table 24, ClO2, Sep. 25, 2009): 0.3475 MPN/ml (wet weight)
- re-growth of fecal coliforms (in words) [2]: no re-growth
- fecal coliforms, Plate count ([2]; Table 25 (aerobic sludge inferred), ClO2): 4.27E+07
- fecal coliforms MPN/4 g dry wt [2, 13]: <0.1803 MPN/4 g dry wt
- fecal coliforms MPN/g dry wt [2, 13]: <0.1803 MPN/g dry wt
- fecal coliforms, Plate count ([2]; Table 25, ClO2 + Irradiated): 0.00E+00
- fecal coliforms MPN/4 g dry wt [2, 14]: <0.1803 MPN/4 g dry wt
- fecal coliforms MPN/g dry wt [2, 14]: <0.1803 MPN/g dry wt
- fecal coliforms MPN/4 g dry wt [2, 15]: <0.1803 MPN/4 g dry wt
- fecal coliforms MPN/g dry wt [2, 15]: <0.1803 MPN/g dry wt
- fecal coliforms MPN/4 g dry wt ([2]; Table 25, ClO2, Oct. 5, 2009): 1.37E+03 MPN/4 g dry wt
- fecal coliforms MPN/g dry wt ([2]; Table 25, ClO2, Oct. 5, 2009): 3.44E+02 MPN/g dry wt
- fecal coliforms MPN/4 g dry wt ([2]; Table 25, ClO2, Sep. 18, 2009): 8.49E+05 MPN/4 g dry wt
- fecal coliforms MPN/g dry wt ([2]; Table 25, ClO2, Sep. 18, 2009): 2.12E+05 MPN/g dry wt
- fecal coliforms MPN/4 g dry wt ([2]; Table 25, ClO2, Sep. 25, 2009): 6.47E+03 MPN/4 g dry wt
- fecal coliforms MPN/g dry wt ([2]; Table 25, ClO2, Sep. 25, 2009): 1.62E+03 MPN/g dry wt
- fecal coliforms, Plate count ([2]; Table 26 (anaerobic sludge inferred), ClO2): 7.26E+06
- fecal coliforms MPN/4 g dry wt [2, 16]: <0.1803 MPN/4 g dry wt
- fecal coliforms MPN/g dry wt [2, 16]: <0.1803 MPN/g dry wt
- fecal coliforms, Plate count ([2]; Table 26, ClO2 + Irradiated): 2.14E+03
- fecal coliforms MPN/4 g dry wt [2, 17]: 1.01E+03 MPN/4 g dry wt
- fecal coliforms MPN/g dry wt [2, 17]: 2.53E+02 MPN/g dry wt
- fecal coliforms MPN/4 g dry wt [2, 18]: <0.1803 MPN/4 g dry wt
- fecal coliforms MPN/g dry wt [2, 18]: <0.1803 MPN/g dry wt
- fecal coliforms MPN/4 g dry wt ([2]; Table 26, ClO2, Oct. 5, 2009): <0.1803 MPN/4 g dry wt
- fecal coliforms MPN/g dry wt ([2]; Table 26, ClO2, Oct. 5, 2009): <0.1803 MPN/g dry wt
- fecal coliforms MPN/4 g dry wt ([2]; Table 26, ClO2, Sep. 18, 2009): 1.02E+05 MPN/4 g dry wt
- fecal coliforms MPN/g dry wt ([2]; Table 26, ClO2, Sep. 18, 2009): 2.54E+04 MPN/g dry wt
- fecal coliforms MPN/4 g dry wt ([2]; Table 26, ClO2, Sep. 25, 2009): 1.67E+03 MPN/4 g dry wt
- fecal coliforms MPN/g dry wt ([2]; Table 26, ClO2, Sep. 25, 2009): 4.17E+02 MPN/g dry wt
- estrogenic activity, E2 spiked (untreated) vs treated samples (in words) [3]: no significant difference
- reduction of estrogenic activity (in words) [3]: does not reduce
- inactivation (in words) [4]: effectively eliminated; also recorded: significant reductions
- time to inactivate clumped poliovirus I aggregates compared to single state viruses (Poliovirus Type 1): 2.7 times longer
- log reduction [5]: 4 to 5 log
- log reduction (complete reduction) [5]: approximately 8 log
- reduction (in words) [5]: did not exhibit any reduction
- log reduction (Salmonella Typhimurium [6]): 3 log
- reduction (in words) (Salmonella Typhimurium [6]): did not show any significant reduction

Compound: C[C@]12CC[C@@H]3c4ccc(O)cc4CC[C@H]3[C@@H]1CC[C@@H]2O [E2, 17-β-estradiol, reference compound]
- upper limit of the dynamic range of the YES assay (saturation) ([3]; E2 standards in DMSO): 60 nM
